Results on 19 molecules are retold here after US10336762B2 (priority 2017, dated 2019).

Structures are written as SMILES. Bounds are passed on as bounds.

One assay has as its system TNFα. As to the kind of experiment: cells. Type of assay: cell-based, human. The settings on record: Homo sapiens, Monocyte, LPS-stimulated human monocytes, TNFα content; read-out: EC50 TNF.
The target in a further assay is IRAK4 enzyme (Homo sapiens (Human), UniProt Q9NWZ3). The experiment in a line: biochemical. Type of assay: biochemical. The settings on record: IRAK4 enzyme, TR-FRET (HTRF), 500 μM ATP. (Time-resolved FRET reads energy transfer from a long-lived donor to a nearby acceptor.)
Chain of IRAK4 enzyme (Q9NWZ3 whole entry): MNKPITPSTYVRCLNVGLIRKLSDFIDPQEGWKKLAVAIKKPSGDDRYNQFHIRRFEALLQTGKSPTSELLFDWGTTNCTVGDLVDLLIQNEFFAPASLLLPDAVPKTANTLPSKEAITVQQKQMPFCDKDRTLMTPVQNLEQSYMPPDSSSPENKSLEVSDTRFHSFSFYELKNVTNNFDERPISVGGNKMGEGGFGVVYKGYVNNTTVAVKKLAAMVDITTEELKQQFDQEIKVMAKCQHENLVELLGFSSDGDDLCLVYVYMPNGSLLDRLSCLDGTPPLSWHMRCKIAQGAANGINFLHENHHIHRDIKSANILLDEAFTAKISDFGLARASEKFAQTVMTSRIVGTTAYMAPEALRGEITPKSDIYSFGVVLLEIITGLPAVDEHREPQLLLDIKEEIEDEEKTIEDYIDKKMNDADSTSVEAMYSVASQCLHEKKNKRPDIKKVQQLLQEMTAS

Regarding `CNC(=O)c1cnc(-c2ccc3cc(C#N)cnn23)cc1N[C@H]1CC[C@H](C(=O)NC)C1` [Example 467, 6-(3-cyanopyrrolo[1,2-b]pyridazin-7-yl)-N-methyl-4-(((1S,3S)-3-(methylcarbamoyl)cyclo-pentyl)amino)nicotinamide], the EC50 with TNFα was 0.167 µM. At IRAK4 enzyme, the IC50 amounted to 0.004 µM.

In the case of `CNC(=O)c1cnc(-c2ccc3cc(C#N)cnn23)cc1NC12CCC(C(=O)NC)(CC1)C2` [Example 468, 6-(3-cyanopyrrolo[1,2-b]pyridazin-7-yl)-N-methyl-4-((4-(methylcarbamoyl)bicyclo[2.2.1]heptan-1-yl)amino)nicotinamide], in the assay with TNFα, the EC50 worked out at 0.112 µM. Besides, it took 0.001 µM to reach half-maximal inhibition against IRAK4 enzyme (IC50).

As to `CNC(=O)c1cnc(-c2ccc3cc(C#N)cnn23)cc1N[C@@H]1CC[C@H](C(=O)NC)C1` [Example 469, 6-(3-cyanopyrrolo[1,2-b]pyridazin-7-yl)-N-methyl-4-(((1R,3S)-3-(methylcarbamoyl)cyclo-pentyl)amino)nicotinamide], the EC50 in the assay on TNFα amounted to 1.1 µM. On IRAK4 enzyme, this molecule came in with an IC50 of 0.041 µM.

In the case of `CNC(=O)c1cnc(-c2ccc3cc(C#N)cnn23)cc1N[C@H]1CCC[C@@H](C(=O)NC)C1` [Example 470, 6-(3-cyanopyrrolo[1,2-b]pyridazin-7-yl)-N-methyl-4-(((1S,3R)-3-(methyl-carbamoyl)cyclohexyl)amino)nicotinamide], the EC50 in the assay with TNFα worked out at 0.44 µM. Moreover, on IRAK4 enzyme, inhibition was half-maximal at 0.025 µM (IC50).

With `CNC(=O)c1cnc(-c2ccc3cc(C#N)cnn23)cc1N[C@H]1C[C@@H](C(=O)NC)C1` [Example 471, 6-(3-cyanopyrrolo[1,2-b]pyridazin-7-yl)-N-methyl-4-(((1s,3s)-3-(methylcarbamoyl)cyclobutyl)amino) nicotinamide], the EC50 in the assay on TNFα was determined as 0.074 µM. Half-maximal inhibition against IRAK4 enzyme (IC50) was put at 0.009 µM.

Regarding `CNC(=O)c1cnc(-c2ccc3cc(C#N)cnn23)cc1N[C@H]1C[C@H](C(=O)NC)C1` [Example 472, 6-(3-cyanopyrrolo[1,2-b]pyridazin-7-yl)-N-methyl-4-(((1r,3r)-3-(methylcarbamoyl)cyclobutyl)amino) nicotinamide], in the assay on TNFα, the EC50 is 5.41 µM. The molecule further came in with an IC50 against IRAK4 enzyme of 0.043 µM.

On to `CNC(=O)c1cnc(-c2ccc3cc(C#N)cnn23)cc1NC12CCC(NC(C)=O)(CC1)C2` [Example 473, 4-((4-acetamido-bicyclo[2.2.1]heptan-1-yl)amino)-6-(3-cyano-pyrrolo[1,2-b]pyridazin-7-yl)-N-methylnicotinamide], for which, in the assay with TNFα, the EC50 was found to be 0.033 µM. Besides, the IC50 at IRAK4 enzyme worked out at 0.001 µM.

In the case of `N#CCNC(=O)c1cnc(-c2ccc3cc(C#N)cnn23)cc1NC12CCC(C(=O)N3CC(F)(F)C3)(CC1)CC2` [Example 474, N-(cyanomethyl)-6-(3-cyanopyrrolo[1,2-b]pyridazin-7-yl)-4-((4-(3,3-difluoroazetidine-1-carbonyl)bicyclo[2.2.2]octan-1-yl)amino)nicotinamide], in the assay on TNFα, the EC50 came to 0.023 µM. The IC50 at IRAK4 enzyme was under 0.001 µM.

Turning to `CNC(=O)C12CCC(Nc3cc(-c4ccc5cc(C#N)cnn45)ncc3C(=O)NCC#N)(CC1)CC2` [Example 475, N-(cyanomethyl)-6-(3-cyanopyrrolo[1,2-b]pyridazin-7-yl)-4-((4-(methylcarbamoyl)bicyclo[2.2.2]octan-1-yl)amino)nicotinamide], the EC50 in the assay with TNFα stood at 0.016 µM. Also, on IRAK4 enzyme, the IC50 was under 0.001 µM.

As for `CC(=O)NC12CCC(Nc3cc(-c4ccc5cc(C#N)cnn45)ncc3C(=O)NCC#N)(CC1)CC2` [Example 476, 4-((4-acetamido-bicyclo[2.2.2]octan-1-yl)amino)-N-(cyano-methyl)-6-(3-cyano-pyrrolo[1,2-b]pyridazin-7-yl)nicotinamide], in the assay on TNFα, the EC50 turned out to be 0.027 µM. In addition, the IC50 against IRAK4 enzyme is under 0.001 µM.

For the molecule `CC(=O)NC12CC(Nc3cc(-c4ccc5cc(C#N)cnn45)ncc3C(=O)NC3CCC(C(=O)N4CCOCC4)CC3)(C1)C2` (centres unmarked) [Example 477, 4-((3-acetamido-bicyclo[1.1.1]pentan-1-yl)amino)-6-(3-cyano-pyrrolo[1,2-b]pyridazin-7-yl)-N-((1r,4r)-4-(morpholine-4-carbonyl)cyclohexyl) nicotinamide], the EC50 with TNFα worked out at 0.098 µM. At IRAK4 enzyme, this molecule displayed an IC50 of 0.001 µM.

Turning to `CC(=O)NC12CC(Nc3cc(-c4ccc5cc(C#N)cnn45)ncc3C(=O)N[C@H]3CC[C@H](C(=O)N4CC(F)(F)C4)CC3)(C1)C2` [Example 478, 4-((3-acetamido-bicyclo[1.1.1]pentan-1-yl)amino)-6-(3-cyano-pyrrolo[1,2-b]pyridazin-7-yl)-N-((1r,4r)-4-(3,3-difluoroazetidine-1-carbonyl)cyclohexyl) nicotinamide], in the assay on TNFα, the EC50 was determined as 0.073 µM. Besides, on IRAK4 enzyme, it took 0.001 µM to reach half-maximal inhibition (IC50).

On to `CNC(=O)[C@H]1CC[C@H](NC(=O)c2cnc(-c3ccc4cc(C#N)cnn34)cc2NC23CC(NC(C)=O)(C2)C3)CC1` [Example 479, 4-((3-acetamidobicyclo[1.1.1]pentan-1-yl)amino)-6-(3-cyanopyrrolo[1,2-b]pyridazin-7-yl)-N-((1r,4r)-4-(methylcarbamoyl)cyclohexyl)nicotinamide], for which the half-maximal effective concentration (EC50) with TNFα is 0.071 µM. On IRAK4 enzyme, this molecule displayed an IC50 of under 0.001 µM.

Regarding `CNC(=O)c1cnc(-c2ccc3cc(C#N)cnn23)cc1NC12CC(NC(=O)C3CC3)(C1)C2` [Example 480, 6-(3-cyanopyrrolo[1,2-b]pyridazin-7-yl)-4-((3-(cyclopropanecarboxamido)bicyclo[1.1.1]pentan-1-yl)amino)-N-methylnicotin-amide], the EC50 in the assay with TNFα amounted to 0.092 µM. This molecule came in with an IC50 against IRAK4 enzyme of 0.002 µM.

On to `CNC(=O)c1cnc(-c2ccc3cc(C#N)cnn23)cc1NC12CCC(C(=O)NC3CC3)(CC1)CC2` [Example 481, 6-(3-cyanopyrrolo[1,2-b]pyridazin-7-yl)-4-((4-(cyclopropylcarbamoyl)bicyclo[2.2.2]octan-1-yl)amino)-N-methylnicotinamide], for which the EC50 with TNFα turned out to be 0.063 µM. The molecule further showed an IC50 on IRAK4 enzyme of 0.002 µM.

Regarding `CNC(=O)c1cnc(-c2ccc3cc(C#N)cnn23)cc1NC12CCC(NC(C)=O)(CC1)CC2` [Example 482, 4-((4-acetamido-bicyclo[2.2.2]octan-1-yl)amino)-6-(3-cyano-pyrrolo[1,2-b]pyridazin-7-yl)-N-methylnicotinamide], the concentration giving a half-maximal response (EC50) in the assay with TNFα was 0.048 µM. Further, the IC50 against IRAK4 enzyme was 0.001 µM.

With `CNC(=O)c1cnc(-c2ccc3cc(C#N)cnn23)cc1NC12CCC(C(=O)N3CC(F)(F)C3)(CC1)CC2` [Example 483, 6-(3-cyanopyrrolo[1,2-b]pyridazin-7-yl)-4-((4-(3,3-difluoroazetidine-1-carbonyl)bicyclo[2.2.2]octan-1-yl)amino)-N-methylnicotinamide], the EC50 in the assay on TNFα was 0.064 µM. Also, on IRAK4 enzyme, the IC50 was 0.001 µM.

`CNC(=O)c1cnc(-c2ccc3cc(C#N)cnn23)cc1NC12CCC(C(=O)N3CCC3)(CC1)CC2` [Example 484, 4-((4-(azetidine-1-carbonyl)bicyclo[2.2.2]octan-1-yl)amino)-6-(3-cyanopyrrolo[1,2-b]pyridazin-7-yl)-N-methyl-nicotinamide]: the EC50 in the assay with TNFα was 0.063 µM. Also, at IRAK4 enzyme, the IC50 was 0.001 µM.

Regarding `CNC(=O)c1cnc(-c2ccc3cc(C#N)cnn23)cc1NC12CCC(C(=O)NC)(CC1)CC2` [Example 485, 6-(3-cyanopyrrolo[1,2-b]pyridazin-7-yl)-N-methyl-4-((4-(methyl-carbamoyl)bicyclo[2.2.2]octan-1-yl)amino) nicotinamide], the EC50 in the assay on TNFα turned out to be 0.039 µM. In addition, 0.001 µM corresponded to half-maximal inhibition against IRAK4 enzyme (IC50).

In general, EC50 refers to the concentration that produces a half-maximal response. For orientation: IC50 means the midpoint of a concentration-inhibition curve. A lower IC50 goes with inhibition by little substance.
